Results reported in publication PMC2248166, “Quantitative peptide binding motifs for 19 human and mouse MHC class I molecules derived using positional scanning combinatorial peptide libraries” (Immunome Research, 2008).

Tests used:
Format in all cases: binding
[1] = molecular target: HLA B*5301 (Homo sapiens, UniProt P01889, A329T/A93T/A95T/C349S/D201E/D98Y/E176V/E187L/E204Q/E69T/G107R/I218V/K202T/L105A/L119I/N104I/Q94N/R106L/R155S/R180L/S101N/S121R/S35A/S48A/T118I/V127L/V306I/V36M/Y140S/Y91F)
[2] = molecular target: HLA B*1501 (Homo sapiens, UniProt P01889, A329T/A93T/A95T/C349S/D201E/D98Y/E187L/E204Q/E69M/E70A/K202T/N87E/Q94N/R155S/R180W/S121R/S35A/S48A/V306I/V36M/Y140S/Y91S); assay: biochemical
[3] = molecular target: H-2 K^d (Mus musculus, UniProt P01902)
[4] = molecular target: HLA A*3001 (Homo sapiens, UniProt P04439, D140H/D185E/E176W/F33S/G80R/H175R/K168Q/R138E/R41S); assay: biochemical
[5] = molecular target: HLA B*0801 (Homo sapiens, UniProt P01889, A93T/A95T/D138N/E176V/E187T/K202T/Q94N/R180D/S35A/V36M/Y33D/Y91F); assay: biochemical
[6] = molecular target: HLA A*3201 (Homo sapiens, UniProt P04439, A270S/D101S/D185E/E176V/E277Q/F133L/G103R/G107R/G231S/H175R/I121M/I218V/I322F/K168Q/L105A/L300P/L318F/M331R/P208A/P217A/Q94H/R106L/R138Q/S129P/T104I/T323A/T345S/V100E/V321M/V358M); assay: biochemical
[7] = molecular target: HLA B*5802 (Homo sapiens, UniProt P01889, A329T/C349S/D201E/D98Y/E176V/E187L/E204Q/E69T/G107R/I218V/I90N/K202T/L105A/N104I/N87E/Q89R/Q94S/R106L/R155S/R180L/R86G/S101N/S121W/S35A/S48A/V127L/V306I/V36M/Y140S/Y91M)
[8] = molecular target: HLA B*3501 (Homo sapiens, UniProt P01889, A329T/A93T/A95T/C349S/D201E/D98Y/E176V/E187L/E204Q/E69T/I218V/K202T/L119I/Q94N/R155S/R180L/S121R/S35A/S48A/T118I/V127L/V306I/V36M/Y140S/Y91F)
[9] = molecular target: HLA B*5101 (Homo sapiens, UniProt P01889, A329T/A93T/A95T/C349S/D138N/D201E/D98Y/E187L/E204Q/E69T/G107R/I218V/K202T/L105A/L119W/N104I/Q94N/R106L/R155S/R180L/S101N/S121T/S35A/S48A/V306I/V36M/Y195H/Y91F)
[10] = molecular target: H-2 D^b (Mus musculus, UniProt P01899)
[11] = molecular target: HLA B*5401 (Homo sapiens, UniProt P01889, A329T/C349S/D138N/D201E/E176V/E187T/E204Q/E69G/I76V/K202T/L119W/R155S/R180L/S121T/S35A/S48A/V127L/V306I/V36M/Y140L)
[12] = molecular target: HLA B*5801 (Homo sapiens, UniProt P01889, A329T/C349S/D201E/D98Y/E176V/E187L/E204Q/E69T/G107R/I218V/I90N/K202T/L105A/L119I/N104I/N87E/Q89R/Q94S/R106L/R155S/R180L/R86G/S101N/S121R/S35A/S48A/T118I/V127L/V306I/V36M/Y140S/Y91M)
[13] = molecular target: HLA A*6802 (Homo sapiens, UniProt P04439, A269V/D140Y/D185E/E176V/E277Q/E87N/F33Y/G231S/I121R/I166T/I218V/L180W/L300P/L318F/N151K/P208A/P217A/Q86R/R138H/R169H/S129P/T345S/V36M)
[14] = molecular target: H-2 D^d (Mus musculus, UniProt P01900)
[15] = molecular target: HLA B*1503 (Homo sapiens, UniProt P01889, A329T/A93T/A95T/C349S/D201E/D98Y/E187L/E204Q/K202T/N87E/Q94N/R155S/R180L/S121R/S35A/V306I/V36M/Y140S/Y91S); assay: biochemical
[16] = molecular target: H-2 K^k (Mus musculus, UniProt P04223)
H-2 K^k, sequence (P01887 21-119): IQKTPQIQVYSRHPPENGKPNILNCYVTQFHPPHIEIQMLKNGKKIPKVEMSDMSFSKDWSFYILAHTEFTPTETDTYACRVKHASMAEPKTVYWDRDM
H-2 K^k, sequence (P04223 22-369): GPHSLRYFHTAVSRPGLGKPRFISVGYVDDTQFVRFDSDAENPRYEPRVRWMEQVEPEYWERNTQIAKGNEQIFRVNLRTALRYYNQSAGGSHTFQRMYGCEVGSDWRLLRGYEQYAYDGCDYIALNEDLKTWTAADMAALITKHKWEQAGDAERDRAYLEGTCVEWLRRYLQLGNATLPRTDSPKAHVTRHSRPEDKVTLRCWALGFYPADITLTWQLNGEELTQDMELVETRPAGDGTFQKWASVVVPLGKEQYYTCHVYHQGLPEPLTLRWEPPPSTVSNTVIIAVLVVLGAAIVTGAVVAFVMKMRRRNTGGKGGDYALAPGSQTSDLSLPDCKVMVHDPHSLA

H-2 D^d, sequence (P01900 whole entry, looked up): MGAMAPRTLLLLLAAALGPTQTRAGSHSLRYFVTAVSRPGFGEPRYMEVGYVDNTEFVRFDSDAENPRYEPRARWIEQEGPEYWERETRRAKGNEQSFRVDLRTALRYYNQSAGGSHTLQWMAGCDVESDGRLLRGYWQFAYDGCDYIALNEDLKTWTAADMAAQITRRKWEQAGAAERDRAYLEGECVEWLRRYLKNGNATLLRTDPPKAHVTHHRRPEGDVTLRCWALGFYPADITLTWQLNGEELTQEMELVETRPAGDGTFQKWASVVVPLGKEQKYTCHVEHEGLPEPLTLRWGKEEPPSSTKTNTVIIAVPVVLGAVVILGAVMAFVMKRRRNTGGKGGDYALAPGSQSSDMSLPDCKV
H-2 K^d, sequence (P01887 21-119): as the sequence (P01887 21-119) above
H-2 K^d, sequence (P01902 22-368): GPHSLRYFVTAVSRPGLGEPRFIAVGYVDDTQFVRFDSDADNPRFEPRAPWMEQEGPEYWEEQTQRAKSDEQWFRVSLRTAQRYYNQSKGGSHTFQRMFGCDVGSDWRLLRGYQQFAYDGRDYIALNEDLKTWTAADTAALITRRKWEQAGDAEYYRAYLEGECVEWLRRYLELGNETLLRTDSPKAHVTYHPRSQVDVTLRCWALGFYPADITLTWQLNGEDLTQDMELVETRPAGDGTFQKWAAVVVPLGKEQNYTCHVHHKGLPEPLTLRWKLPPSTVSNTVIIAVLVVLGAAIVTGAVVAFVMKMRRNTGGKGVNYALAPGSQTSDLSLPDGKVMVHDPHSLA
H-2 D^b, sequence (P01887 21-119): as the sequence (P01887 21-119) above
H-2 D^b, sequence (P01899 25-362): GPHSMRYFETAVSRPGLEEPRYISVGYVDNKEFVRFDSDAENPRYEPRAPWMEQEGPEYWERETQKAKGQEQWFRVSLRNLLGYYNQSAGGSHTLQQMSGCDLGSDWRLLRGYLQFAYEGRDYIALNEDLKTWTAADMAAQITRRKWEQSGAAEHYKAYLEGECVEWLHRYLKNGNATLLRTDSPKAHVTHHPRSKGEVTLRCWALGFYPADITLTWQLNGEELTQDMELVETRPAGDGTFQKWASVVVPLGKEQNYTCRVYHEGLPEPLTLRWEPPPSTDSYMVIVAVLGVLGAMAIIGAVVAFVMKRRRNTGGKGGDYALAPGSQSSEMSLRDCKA

Sequence	Normalized average relative binding affinity(ARB) [1]	Normalized average relative binding affinity(ARB) [2]	Normalized average relative binding affinity(ARB) [3]	Normalized average relative binding affinity(ARB) [4]	Normalized average relative binding affinity(ARB) [5]	Normalized average relative binding affinity(ARB) [6]	Normalized average relative binding affinity(ARB) [7]	Normalized average relative binding affinity(ARB) [8]	Normalized average relative binding affinity(ARB) [9]	Normalized average relative binding affinity(ARB) [10]	Normalized average relative binding affinity(ARB) [11]	Normalized average relative binding affinity(ARB) [12]	Normalized average relative binding affinity(ARB) [13]	Normalized average relative binding affinity(ARB) [14]	Normalized average relative binding affinity(ARB) [15]	Normalized average relative binding affinity(ARB) [16]
XXXXXFXXX [3064.0105]	0.86	1.0	0.39	1.0	1.0	0.90	0.36	1.0	1.0	0.70	0.30	0.51	1.0	0.79	1.0	1.0
XXXXEXXXX [3064.0084]	0.15	0.42	0.031	0.099	0.014	0.066	0.23	0.34	0.20	0.021	0.26	0.21	0.20	0.059	0.41	0.11
XXXXQXXXX [3064.0094]	0.12	1.0	0.15	0.20	0.037	0.38	0.063	0.28	0.29	0.023	0.40	0.19	0.077	0.15	0.20	0.099
XXXXXXXHX [3064.0147]	0.74	1.0	0.096	0.44	0.15	0.49	0.26	0.15	0.33	0.073	0.043	0.18	0.046	0.11	0.84	0.0052
